Measurements taken from patent US12545659B2, “IRAK degraders and uses thereof” (Kymera Therapeutics, Inc., priority 2019, dated 2026).

target: T1, IRAK4 (Homo sapiens, UniProt Q9NWZ3); experiment: IRAK4 MSD Degradation in OCI-LY10; type: cell-based; conditions: OCI-LY10 cells, 4 hrs incubation, read-out: IRAK4 degradation in OCI-LY10 at 4 hrs: DC50
T1 construct: endogenous in cells; host or cells: OCI-LY10
T1 sequence (Q9NWZ3 1-460): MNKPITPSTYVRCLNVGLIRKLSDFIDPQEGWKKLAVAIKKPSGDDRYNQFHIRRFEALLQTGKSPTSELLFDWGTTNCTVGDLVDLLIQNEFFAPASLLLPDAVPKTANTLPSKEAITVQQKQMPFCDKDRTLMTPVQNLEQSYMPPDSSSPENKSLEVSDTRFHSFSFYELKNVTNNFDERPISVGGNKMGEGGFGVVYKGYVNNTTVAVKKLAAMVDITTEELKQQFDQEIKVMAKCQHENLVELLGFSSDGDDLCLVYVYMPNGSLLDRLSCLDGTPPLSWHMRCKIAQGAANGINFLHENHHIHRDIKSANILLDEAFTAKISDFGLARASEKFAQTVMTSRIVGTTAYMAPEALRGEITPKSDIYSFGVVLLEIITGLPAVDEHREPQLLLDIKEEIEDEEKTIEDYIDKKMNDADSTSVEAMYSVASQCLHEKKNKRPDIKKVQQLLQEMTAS
Method in brief: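 IRAK4 remaining in lysates was read by Meso Scale electrochemiluminescence sandwich (2H9 capture, Y279 plus SULFO-TAG detection). Cells were exposed 4 to 24 h at 37 °C to eight 3-fold dilutions from 1 to 10 μM final top; three-parameter logistic fit gave DC50.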

Compared with `COc1cc2nn([C@H]3CC[C@H](CN4CC(c5cccc6c5n(C)c(=O)n6C5CCC(=O)NC5=O)C4)CC3)cc2cc1NC(=O)c1cccc(C(C)(C)F)n1` (some centres unmarked) [I-112], `COc1cc2nn([C@H]3CC[C@H](CN4CC(c5ccc6c(c5)n(C)c(=O)n6C5CCC(=O)NC5=O)C4)CC3)cc2cc1NC(=O)c1cccc(C(C)(C)F)n1` (some centres unmarked) [I-98] is lower in DC50: 50 to 100 nM for the first, under 50 nM for the second.

`CN(C[C@H]1CC[C@H](n2cc3cc(NC(=O)c4cccc(C(F)(F)F)n4)c(C(C)(C)O)cc3n2)CC1)C1CCN(c2ccc3c(c2)n(C2CCC(=O)NC2=O)c(=O)n3C)CC1` (some centres unmarked) [I-83] and `CN(C[C@H]1CC[C@H](n2cc3cc(NC(=O)c4cccc(C(F)(F)F)n4)c(C(C)(C)O)cc3n2)CC1)c1cccc2c1n(C)c(=O)n2C1CCC(=O)NC1=O` (some centres unmarked) [I-310, N-[2-[4-[[[1-(2,6-dioxo-3-piperidyl)-3-methyl-2-oxo-benzimidazol-4-yl]-methyl-amino]methyl]cyclohexyl]-6-(1-hydroxy-1-methyl-ethyl)indazol-5-yl]-6-(trifluoromethyl)pyridine-2-carboxamide] fall in the same range of DC50: 500 to 1000 nM for the first, 500 to 1000 nM for the second.

`Cn1c(=O)n(C2CCC(=O)NC2=O)c2cccc(CC3CCN(C[C@H]4CC[C@H](n5cc6cc(NC(=O)c7cccc(C(F)(F)F)n7)c(C(C)(C)O)cc6n5)CC4)CC3)c21` (some centres unmarked) [I-229] and `Cn1c(=O)n(C2CCC(=O)NC2=O)c2cccc(CCC3CCN(C[C@H]4CC[C@H](n5cc6cc(NC(=O)c7cccc(C(F)(F)F)n7)c(C(C)(C)O)cc6n5)CC4)CC3)c21` (some centres unmarked) [I-265] cannot be ordered by DC50: under 50 nM for the first, under 50 nM for the second.

`COc1cc2nn([C@H]3CC[C@H](CN4CCC(c5cccc6c5n(C)c(=O)n6C5CCC(=O)NC5=O)CC4)CC3)cc2cc1NC(=O)c1cccc(C(C)(C)O)n1` (some centres unmarked) [I-258] and `Cn1c(=O)n(C2CCC(=O)NC2=O)c2cccc(C3CCN(C[C@H]4CC[C@H](n5cc6cc(NC(=O)c7cccc(C(F)(F)F)n7)c(C(C)(C)O)cc6n5)CC4)CC3)c21` (some centres unmarked) [I-226] cannot be ordered by DC50: under 50 nM for the first, under 50 nM for the second.

`Cn1c(=O)n(C2CCC(=O)NC2=O)c2cccc(CCN3CC4(CCN(C[C@H]5CC[C@H](n6cc7cc(NC(=O)c8cccc(C(F)(F)F)n8)c(C(C)(C)O)cc7n6)CC5)CC4)C3)c21` (some centres unmarked) [I-55] and `Cn1c(=O)n(C2CCC(=O)NC2=O)c2cccc(OCC3CCN(C[C@H]4CC[C@H](n5cc6cc(NC(=O)c7cccc(C(F)(F)F)n7)c(C(C)(C)O)cc6n5)CC4)CC3)c21` (some centres unmarked) [I-132] cannot be ordered by DC50: under 50 nM for the first, under 50 nM for the second.

First: CN(C[C@H]1CC[C@H](n2cc3cc(NC(=O)c4ccccn4)c(C(C)(C)O)cc3n2)CC1)C1CCN(Cc2cccc3c2n(C)c(=O)n3C2CCC(=O)NC2=O)CC1 (some centres unmarked) [I-54]
Second: COc1cc2nn([C@H]3CC[C@H](CN(C)C4CCN(c5cccc6c5n(C)c(=O)n6C5CCC(=O)NC5=O)CC4)CC3)cc2cc1NC(=O)c1ccccn1 (some centres unmarked) [I-329]
The DC50 of the first is higher: 50 to 100 nM for the first, under 50 nM for the second.

`Cn1c(=O)n(C2CCC(=O)NC2=O)c2ccc(C3CCN(C[C@H]4CC[C@H](n5cc6cc(NC(=O)c7cccc(C(C)(C)F)n7)c(C(F)F)cc6n5)CC4)CC3)cc21` (some centres unmarked) [I-101] and `COc1cc2nn([C@H]3CC[C@H](CN4CCC(c5ccc6c(c5)n(C)c(=O)n6C5CCC(=O)NC5=O)CC4)CC3)cc2cc1NC(=O)c1cccc(C(C)(C)F)n1` (some centres unmarked) [I-100] cannot be ordered by DC50: under 50 nM for the first, under 50 nM for the second.

First: COc1cc2nn([C@H]3CC[C@H](CN4CCC(c5ccc6c(c5)n(C)c(=O)n6C5CCC(=O)NC5=O)CC4)CC3)cc2cc1NC(=O)c1cccc(C(F)(F)F)n1 (some centres unmarked) [I-262]
Second: COc1cc2nn([C@H]3CC[C@H](CN4CCC5(CC4)CC(CNc4cccc6c4n(C)c(=O)n6C4CCC(=O)NC4=O)C5)CC3)cc2cc1NC(=O)c1cccc(C(F)(F)F)n1 (some centres unmarked) [I-163]
The DC50 of the first is lower: under 50 nM for the first, 50 to 100 nM for the second.

First: Cn1c(=O)n(C2CCC(=O)NC2=O)c2cccc(CCC3CC4(CCN(C[C@H]5CC[C@H](n6cc7cc(NC(=O)c8ccccn8)c(C(F)F)cc7n6)CC5)CC4)C3)c21 (some centres unmarked) [I-277]
Second: Cn1c(=O)n(C2CCC(=O)NC2=O)c2cccc(C#CCC3CCN(C[C@H]4CC[C@H](n5cc6cc(NC(=O)c7cccc(C(F)(F)F)n7)c(C(F)F)cc6n5)CC4)CC3)c21 (some centres unmarked) [I-95]
The DC50 of the first is lower: under 50 nM for the first, 50 to 100 nM for the second.

First: Cn1c(=O)n(C2CCC(=O)NC2=O)c2cccc([C@H]3CC[C@H](N(C)C[C@H]4CC[C@H](n5cc6cc(NC(=O)c7cccc(C(F)(F)F)n7)c(C(F)F)cc6n5)CC4)CC3)c21 (single isomer, unassigned) [I-164, N-[6-(difluoromethyl)-2-[4-[[[4-[1-(2,6-dioxo-3-piperidyl)-3-methyl-2-oxo-benzimidazol-4-yl]cyclohexyl]-methyl-amino]methyl]cyclohexyl]indazol-5-yl]-6-(trifluoromethyl)pyridine-2-carboxamide]
Second: CN(CCO[C@H]1C[C@H](Cc2cccc3c2n(C)c(=O)n3C2CCC(=O)NC2=O)C1)C[C@H]1CC[C@H](n2cc3cc(NC(=O)c4cccc(C(F)(F)F)n4)c(C(F)F)cc3n2)CC1 (some centres unmarked) [I-309]
The DC50 of the first is lower: under 50 nM for the first, 50 to 100 nM for the second.

In the case of `COc1cc2nn([C@H]3CC[C@H](CN4CCC(c5cccc6c5n(C)c(=O)n6C5CCC(=O)NC5=O)CC4)CC3)cc2cc1NC(=O)c1coc(C)n1` (some centres unmarked) [I-325], the DC50 is reported as under 50 nM.

same assay, conditions: OCI-LY10 cells, 24 hrs incubation, read-out: IRAK4 degradation in OCI-LY10 at 24 hrs: DC50

Compared with `CC(C)(O)c1cc2nn([C@H]3CC[C@H](CN4CCC(O[C@H]5C[C@H](Nc6cccc7c6C(=O)N(C6CCC(=O)NC6=O)C7=O)C5)CC4)CC3)cc2cc1NC(=O)c1cccc(C(F)(F)F)n1` (some centres unmarked) [I-312], `CC(C)(O)c1cc2nn([C@H]3CC[C@H](CN4CCC(O[C@H]5C[C@H](Nc6cccc7c6C(=O)N(C6CCC(=O)NC6=O)C7=O)C5)CC4)CC3)cc2cc1NC(=O)c1cccc(C(C)(C)F)n1` (some centres unmarked) [I-234] is higher in DC50: under 50 nM for the first, 50 to 100 nM for the second.

Compared with `CN(C[C@H]1CC[C@H](n2cc3cc(NC(=O)c4cccc(C(F)(F)F)n4)c(C(C)(C)O)cc3n2)CC1)C1CCC2(CC1)CC(CNc1cccc3c1C(=O)N(C1CCC(=O)NC1=O)C3=O)C2` (some centres unmarked) [I-32], `CC(C)(O)c1cc2nn([C@H]3CC[C@H](CN4CCC5(CC4)CC(CCNc4cccc6c4C(=O)N(C4CCC(=O)NC4=O)C6=O)C5)CC3)cc2cc1NC(=O)c1cccc(C(C)(F)F)n1` (some centres unmarked) [I-250] is higher in DC50: under 50 nM for the first, 50 to 100 nM for the second.

First: O=C1CCC(N2C(=O)c3cccc(NCCC4CC5(CCN(C[C@H]6CC[C@H](n7cc8cc(NC(=O)c9cccc(C(F)(F)F)n9)c(OC9CC9)cc8n7)CC6)CC5)C4)c3C2=O)C(=O)N1 (some centres unmarked) [I-159]
Second: O=C1CCC(N2C(=O)c3cccc(NCCC4CC5(CCN(C[C@H]6CC[C@H](n7cc8cc(NC(=O)c9cccc(C(F)(F)F)n9)c(OC(F)F)cc8n7)CC6)CC5)C4)c3C2=O)C(=O)N1 (some centres unmarked) [I-89]
The DC50 of the first is lower: under 50 nM for the first, 50 to 100 nM for the second.

`COc1cc2nn([C@H]3CC[C@H](CN4CCC5(CC4)CC(CCNc4cccc6c4C(=O)N(C4CCC(=O)NC4=O)C6=O)C5)CC3)cc2cc1NC(=O)c1cccc(C(C)(C)F)n1` (some centres unmarked) [I-92] and `COc1cc2nn([C@H]3CC[C@H](CN4CCC5(CC4)CC(CNc4cccc6c4C(=O)N(C4CCC(=O)NC4=O)C6=O)C5)CC3)cc2cc1NC(=O)c1ccccn1` (some centres unmarked) [I-273] fall in the same range of DC50: 50 to 100 nM for the first, 50 to 100 nM for the second.

Compared with `COc1cc2nn([C@H]3CC[C@H](CN4CCC(O[C@H]5C[C@H](Nc6cccc7c6C(=O)N(C6CCC(=O)NC6=O)C7=O)C5)CC4)CC3)cc2cc1NC(=O)c1cccc(C(C)(C)F)n1` (some centres unmarked) [I-305], `COc1cc2nn([C@H]3CC[C@H](CN4CCC5(CC4)CC(Nc4cccc6c4C(=O)N(C4CCC(=O)NC4=O)C6=O)C5)CC3)cc2cc1NC(=O)c1ccc(F)c(C)n1` (some centres unmarked) [I-224] is lower in DC50: 50 to 100 nM for the first, under 50 nM for the second.

`O=C1CCC(N2C(=O)c3cccc(NCC4CC5(CCN(C[C@H]6CC[C@H](n7cc8cc(NC(=O)c9cccc(C(F)(F)F)n9)c(C(F)F)cc8n7)CC6)CC5)C4)c3C2=O)C(=O)N1` (some centres unmarked) [I-46] and `CN(CCCOCCCNc1cccc2c1C(=O)N(C1CCC(=O)NC1=O)C2=O)C[C@H]1CC[C@H](n2cc3cc(NC(=O)c4cccc(C(F)(F)F)n4)c(C(C)(C)O)cc3n2)CC1` (some centres unmarked) [I-31] fall in the same range of DC50: 50 to 100 nM for the first, 50 to 100 nM for the second.

First: CN(CCCO[C@H]1C[C@H](Nc2cccc3c2C(=O)N(C2CCC(=O)NC2=O)C3=O)C1)C[C@@]1(C)Cc2cc(NC(=O)c3cnn4cccnc34)c(N3CCOCC3)cc2O1 (stereo partly drawn) [I-161, N-[(2R)-2-[[3-[3-[[2-(2,6-dioxo-3-piperidyl)-1,3-dioxo-isoindolin-4-yl]amino]cyclobutoxy]propyl-methyl-amino]methyl]-2-methyl-6-morpholino-3H-benzofuran-5-yl]pyrazolo[1,5-a]pyrimidine-3-carboxamide]
Second: CN(CCCO[C@H]1C[C@H](Nc2cccc3c2C(=O)N(C2CCC(=O)NC2=O)C3=O)C1)C[C@H]1CC[C@H](n2cc3cc(NC(=O)c4cccc(C(F)(F)F)n4)c(C(C)(C)O)cc3n2)CC1 (some centres unmarked) [I-41]
The DC50 of the first is higher: 500 to 1000 nM for the first, under 50 nM for the second.
